This note sets out measurements from patent US6465501B2, “Azolidines as β3 adrenergic receptor agonists” (Wyeth, priority 2000, dated 2002).

Counter-ions that a name gives are not always drawn.

The melting point is the temperature of the solid-liquid transition. `O=C1NC(=O)C(Nc2ccc(CCNC[C@@H](O)COc3cccc4[nH]c(=O)[nH]c34)cc2)S1` (stereo partly shown) (as salt: salt) [Example 19, 5-{4-[2-({(2 R)-2-Hydroxy-3-[(2-oxo-2,3-di hydro-1 H-benzimidazol-4-yl)oxy]propyl}amino)ethyl]anilino}-1,3-thiazolidine-2,4-dione] registered a melting point of 172 °C. Then `O=C1NC(=O)C(Nc2ccc(CCNC[C@H](O)COc3ccccc3)cc2)S1` (stereo partly shown) (as salt: salt) (hydrate or solvate) [Example 9, 5-[4-(2-{[(2 S)-2-Hydroxy-3-phenoxypropyl]amino}ethyl)anilino]-1,3-thiazolidine-2,4-dione], with 55 °C.

The compound `O=C1NC(=O)C(Nc2ccc(CCNC[C@@H](O)c3cccnc3)cc2)S1` (stereo partly shown) (hydrate or solvate) [Example 30, 5-{4-[2-((2 S)-2-Hydroxy-2-pyridin-3-yl-ethylamino)-ethyl]-phenylamino}-thiazolidine-2,4-dione] gave a melting point of 46 to 48 °C. In turn, `O=C1NC(=O)C(Nc2ccc(CCNC[C@H](O)COc3ccc(F)cc3)cc2)S1` (stereo partly shown) (as salt: salt) (hydrate or solvate) [Example 8, 5-[4-(2-{[(2 S)-3-(4-Fluorophenoxy)-2-hydroxypropyl]amino}ethyl)anilino]-1,3-thiazolidine-2,4-dione] yielded a melting point of 55 °C.

For the compound `O=C1NC(=O)C(Nc2ccc(CCNC[C@H](O)COc3ccc4ccccc4c3)cc2)S1` (stereo partly shown) (hydrate or solvate) [Example 21, 5-(4-{2-[(2 S)-2-Hydroxy-3-(naphthalen-2-yloxy)-propylamino]-ethyl}-phenylamino)-thiazolidine-2,4-dione], the melting point was 90 to 91 °C. On to `O=C1NC(=O)C(Nc2ccc(CCNC[C@H](O)c3ccccc3)cc2)S1` (stereo partly shown) (as salt: salt) [Example 7, 5-[4-(2-{[(2 R)-2-Hydroxy-2-phenylethyl]amino}ethyl)anilino]-1,3-thiazolidine-2,4-dione], for which the melting point turned out to be 55 °C. In the case of `O=C1NC(=O)C(N(Cc2ccc(Br)cc2)c2ccc(CCNC[C@H](O)COc3ccc(O)cc3)cc2)S1` (stereo partly shown) (hydrate or solvate) [Example 28, 5-[(4-Bromo-benzyl)-(4-{2-[(2 S)-2-hydroxy-3-(4-hydroxy-phenoxy)-propylamino]-ethyl}-phenyl)-amino]-thiazolidine-2,4-dione], the melting point was 79 °C (dec.).

The compound `O=C1NC(=O)C(Nc2ccc(CCNCC(O)COc3cccc4ccccc34)cc2)S1` (stereo not shown) (hydrate or solvate) [Example 23, 5-(4-{2-[2-Hydroxy-3-(naphthalen-1-yloxy)-propylamino]-ethyl}-phenylamino)-thiazolidine-2,4-dione] came in with a melting point of 61 to 62 °C. `O=C1NC(=O)C(Nc2ccc(CCNC[C@H](O)COc3ccc(-c4ccccc4)cc3)cc2)S1` (stereo partly shown) [Example 22, 5-(4-{2-[(2 S)-3-(Biphenyl-4-yloxy)-2-hydroxy-propylamino]-ethyl}-phenylamino)-thiazolidine-2,4-dione] gave a melting point of 70 to 71 °C.

For `O=C1NC(=O)C(Nc2ccc(CCNC[C@H](O)COc3cccc4[nH]c5ccccc5c34)cc2)S1` (stereo partly shown) (as salt: salt) (hydrate or solvate) [Example 13, 5-[4-(2-{[(2 S)-3-(9 H-Carbazol-4-yloxy)-2-hydroxypropyl]amino}ethyl)anilino]-1 ,3-thiazolidine-2,4-dione], the melting point came to 140 °C. Then `O=C1NC(=O)C(N(Cc2ccc(Br)cc2)c2ccc(CCNC[C@H](O)COc3ccccc3)cc2)S1` (stereo partly shown) (hydrate or solvate) [Example 29, 5-((4-Bromo-benzyl)-{4-[2-((2 S)-2-hydroxy-3-phenoxy-propylamino)-ethyl]-phenyl}-amino)-thiazolidine-2,4-dione], with 52 to 54 °C; and `CN(c1ccc(CCNC[C@H](O)COc2ccc(OCc3ccccc3)cc2)cc1)C1SC(=O)NC1=O` (stereo partly shown) (as salt: salt) [Example 26, 5-[(4-{2-[(2 S)-3-(4-Benzyloxy-phenoxy)-2-hydroxy-propylamino]-ethyl}-phenyl)-methyl-amino]-thiazolidine-2,4-dione], with 51 to 53 °C. Then `O=C1NC(=O)C(N(CC#Cc2ccc(F)cc2)c2ccc(CCNC[C@H](O)COc3ccc(OCc4ccccc4)cc3)cc2)S1` (stereo partly shown) (hydrate or solvate) [Example 27, 5-[(4-{2-[(2 S)-3-(4-Benzyloxy-phenoxy)-2-hydroxy-propylamino]-ethyl}-phenyl)-[3-(4-fluoro-phenyl)-prop-2-ynyl]-amino}-thiazolidine-2,4-dione], with 99 to 101 °C; and `CC(Cc1ccc(NC2SC(=O)NC2=O)cc1)NC[C@H](O)c1cccc(Cl)c1` (stereo partly shown) (as salt: salt) (hydrate or solvate) [Example 18, 5-[4-(2-{[(2 R)-2-(3-Chlorophenyl)-2-hydroxyethyl]amino}propyl)anilino]-1,3-thiazolidine-2,4-dione], with 83 to 85 °C; and `O=C1NC(=O)C(Nc2ccc(CCNC[C@H](O)COc3ccc(Oc4ccccc4)cc3)cc2)S1` (stereo partly shown) (as salt: salt) [Example 1, 5-[4-(2-{[(2 S)-2-Hydroxy-3-(4-phenoxyphenoxy)propyl]amino}ethyl)anilino]-1,3-thiazolidine-2,4-dione], with 72 to 74 °C. Then `CN1C(=O)SC(Nc2ccc(CCNC[C@H](O)COc3ccc(OCc4ccccc4)cc3)cc2)C1=O` (stereo partly shown) (as salt: HBr) [Example 2, 5-{4-[2-({(2 S)-3-[4-(Benzyloxy}phenoxy]-2-hydroxypropyl}amino)ethyl]anilino}-3-methyl-1,3-thiazolidine-2,4-dione], with 165 to 167 °C; and `O=C1NC(=O)C(Nc2ccc(CCNC[C@H](O)c3cccnc3)cc2)S1` (stereo partly shown) (hydrate or solvate) [Example 31, 5-{4-[2-((2 R)-2-Hydroxy-2-pyridin-3-yl-ethylamino)-ethyl]-phenylamino}-thiazolidine-2,4-dione], with 65 to 67 °C; and `O=C1NC(=O)C(N(Cc2ccc(Br)cc2)c2ccc(CCNC[C@H](O)COc3ccc(OCc4ccccc4)cc3)cc2)S1` (stereo partly shown) (as salt: salt) [Example 25, 5-[(4-{2-[(2 S)-3-(4-Benzyloxy-phenoxy)-2-hydroxy-propylamino]-ethyl}-phenyl)-(4-bromo-benzyl)-amino]-thiazolidine-2,4-dione], with 50 to 52 °C.

`COc1ccc(OC[C@@H](O)CNCCc2ccc(NC3SC(=O)NC3=O)cc2)cc1` (stereo partly shown) (as salt: salt) (hydrate or solvate) [Example 10, 5-[4-(2-{[(2 S)-2-Hydroxy-3-(4-methoxyphenoxy)propyl]amino}ethyl)anilino]-1,3-thiazolidine-2,4-dione] yielded a melting point of 56 °C.

As for `O=C1NC(=O)C(Nc2ccc(CCNC[C@H](O)COc3ccc4c(c3)OCO4)cc2)S1` (stereo partly shown) (hydrate or solvate) [Example 24, 5-(4-{2-[(2 S)-3-(Benzo[1,3]dioxol-5-yloxy)-2-hydroxy-propylamino]-ethyl}-phenylamino)-thiazolidine-2,4-dione], the melting point was 65 °C (dec.). Compound `CN(c1ccc(CCNC[C@H](O)COc2ccccc2)cc1)C1SC(=O)NC1=O` (stereo partly shown) (as salt: salt) (hydrate or solvate) [Example 17, 5-[4-(2-{[(2 S)-2-Hydroxy-3-phenoxypropyl]amino}ethyl)(methyl)anilino]-1,3-thiazolidine-2,4-dione.] registered a melting point of 58 °C. In turn, `CS(=O)(=O)Nc1cc([C@H](O)CNCCc2ccc(NC3SC(=O)NC3=O)cc2)ccc1O` (stereo partly shown) (as salt: salt) (hydrate or solvate) [Example 14, N{5-[(1 S)-2-({4-[(2,4-Dioxo-1,3-thiazolidin-5-yl)amino]phenethyl}amino)-1-hydroxyethyl]-2-hydroxyphenyl}methanesulfonamide] showed a melting point of 130 °C. To `CN1C(=O)SC(Nc2ccc(CCNC[C@H](O)c3cccc(Cl)c3)cc2)C1=O` (stereo partly shown) [Example 3, 5-[4-(2-{[(2 R)-2-(3-Chlorophenyl)-2-hydroxyethyl]amino}ethyl)anilino]-3-methyl-1,3-thiazolidine-2,4-dione] belongs 129 to 131 °C; to `O=C1NC(=O)C(Nc2ccc(CCNC[C@H](O)COc3cccc(O)c3)cc2)S1` (stereo partly shown) (as salt: salt) (hydrate or solvate) [Example 12, 5-[4-(2-{[(2 S)-2-Hydroxy-3-(3-hydroxyphenoxy)propyl]amino}ethyl)anilino]-1,3-thiazolidine-2,4-dione], 65 °C; to `O=C1NC(=O)C(Nc2ccc(CCNC[C@H](O)COc3ccc4occc4c3)cc2)S1` (stereo partly shown) (as salt: salt) (hydrate or solvate) [Example 15, 5-[4-(2-{[(2 S)-3-(1-Benzofuran-5-yloxy)-2-hydroxypropyl]amino}ethyl)anilino]-1,3-thiazolidine-2,4-dione], 50 °C.
